This note sets out measurements from ChEMBL document CHEMBL1201862, “PubChem BioAssay data set” (2004).

Among the test systems are Malme-3M; HL-60; SF-268; HCT-15; HOP-92; LOX IMVI; KM12; SF-539; SK-MEL-2; HCC 2998; SK-OV-3; NCI-H460; MCF7; OVCAR-8; RXF 393; A549; OVCAR-3; M14; SR.
Test in all cases: NCI tumour cell line growth inhibition, 48 h

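The compound was tested at five concentrations on cells cultured in 96-well plates, with a 48-hour exposure period. Here, GI50 denotes the concentration required for 50% inhibition of growth.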 Calls of active or inactive are those of the source. No stated cut-off is given here; in the data, active = GI50 up to about 1.1 µM and inactive = higher.

As to `CCCCCCCCCCCC1CCCC(C)N1` (configuration not stated), the GI50 in the assay on Malme-3M was 90.4 µM (inactive); in the assay with HL-60 it was 10.8 µM (inactive); in the assay on SF-268 it was 67.9 µM (inactive); in the assay on HCT-15, 38.5 µM; with HOP-92, 17.7 µM (inactive); with LOX IMVI, 18.2 µM (inactive). In addition, the GI50 in the assay with KM12 is 30.9 µM (inactive); with SF-539 it was 69.8 µM (inactive); in the assay on SK-MEL-2 it was 72.1 µM (inactive); in the assay on HCC 2998, 46.3 µM (inactive); with SK-OV-3, 75.2 µM (inactive); in the assay on NCI-H460, 45.1 µM (inactive). Moreover, the GI50 in the assay on MCF7 is 50 µM (inactive); in the assay on OVCAR-8, 80 µM (inactive); in the assay on RXF 393, 35.8 µM (inactive); with A549, 88.7 µM (inactive); with OVCAR-3, 72.9 µM (inactive).

On to `Cc1cc(N(CCC#N)CCC#N)ccc1/C=C(\NC(=O)/C=C/c1ccccc1)NC(=O)Nc1ccccc1C`, for which the GI50 was > 100 µM (inactive) in the assay on Malme-3M; > 100 µM (inactive) in the assay with HL-60; 24.7 µM (inactive) in the assay with SF-268; above 100 µM in the assay with HCT-15; 23.4 µM (inactive) in the assay with HOP-92; 63.4 µM (inactive) with LOX IMVI. The GI50 was > 100 µM (inactive) with KM12; 38.1 µM (inactive) in the assay with SF-539; 38.7 µM (inactive) in the assay with SK-MEL-2; > 100 µM (inactive) in the assay on HCC 2998; 76.2 µM (inactive) in the assay on NCI-H460; 30.2 µM (inactive) with OVCAR-8. The GI50 in the assay with RXF 393 is 17.2 µM (inactive); in the assay with A549, > 100 µM (inactive); in the assay on M14, > 100 µM (inactive); in the assay on OVCAR-3, > 100 µM (inactive).

On to `O=C1C(Cl)N(c2c(Cl)cccc2Cl)C1c1c[nH]c2ccccc12` (configuration not stated), for which the GI50 was 36.3 µM (inactive) with Malme-3M; > 100 µM (inactive) with HL-60; > 100 µM (inactive) in the assay with SF-268; > 100 µM (inactive) with HOP-92; > 100 µM (inactive) in the assay with SR; > 100 µM (inactive) in the assay with KM12. Also, the GI50 with SF-539, with SK-MEL-2, in the assay with SK-OV-3, in the assay on NCI-H460, in the assay on OVCAR-8 and in the assay on RXF 393 was > 100 µM (inactive) in each case. Also, the GI50 with A549, in the assay with M14 and in the assay with OVCAR-3 was > 100 µM (inactive) in each case.

Consider `O=C(Cc1ccccc1)NN1C(=O)C(Cl)C1c1ccccc1` (configuration not stated), for which the GI50 in the assay on Malme-3M was > 100 µM (inactive); with HL-60 it was 27.6 µM (inactive); with SF-268 it was > 100 µM (inactive); with HCT-15, above 100 µM; in the assay with SR, 18.3 µM (inactive); with KM12, 66.4 µM (inactive). For the same molecule, the GI50 is > 100 µM (inactive) in the assay on SK-MEL-2; > 100 µM (inactive) in the assay with HCC 2998; > 100 µM (inactive) in the assay on SK-OV-3; > 100 µM (inactive) with NCI-H460; 79.3 µM (inactive) in the assay on OVCAR-8; 77.6 µM (inactive) in the assay on RXF 393. Besides, the GI50 in the assay with A549 is > 100 µM (inactive); with M14 it was > 100 µM (inactive); with OVCAR-3 it was 37.2 µM (inactive).

For the molecule `CC1=C(Oc2ccccc2)C(CCC(=O)O)c2c(O)cc(Cl)c(O)c21` (configuration not stated), the GI50 was > 100 µM (inactive) in the assay on HL-60; > 100 µM (inactive) with SF-268; above 100 µM with HCT-15; > 100 µM (inactive) with HOP-92; > 100 µM (inactive) in the assay on LOX IMVI; > 100 µM (inactive) in the assay with SR. Moreover, the GI50 with KM12, with SF-539, in the assay with SK-MEL-2, with HCC 2998, with NCI-H460 and with OVCAR-8 was > 100 µM (inactive) each time. Moreover, the GI50 in the assay with RXF 393, with A549, with M14 and in the assay on OVCAR-3 was > 100 µM (inactive) throughout.

Consider `COc1cc(CCc2ccc(OCCN(C)C)cc2)cc(OC)c1OC`, for which the GI50 in the assay with Malme-3M is 93.3 µM (inactive); with HL-60, 33.7 µM (inactive); with SF-268 it was > 100 µM (inactive); in the assay with HCT-15, above 100 µM; in the assay on HOP-92, 52.4 µM (inactive); in the assay on LOX IMVI it was 34.8 µM (inactive). Besides, the GI50 with SR was 49.8 µM (inactive); with KM12, > 100 µM (inactive); in the assay with SF-539 it was > 100 µM (inactive); with NCI-H460, > 100 µM (inactive); in the assay with OVCAR-8, > 100 µM (inactive); in the assay on RXF 393 it was 41.8 µM (inactive). Also, the GI50 in the assay with A549 is > 100 µM (inactive); in the assay on M14, 68.4 µM (inactive); with OVCAR-3, 64.1 µM (inactive).

As for `C[C@@]12CC[C@H]3[C@@H]4CCC(=O)N[C@@]4(C)CC[C@@H]3[C@@]1(C)CC[C@H](OC(=O)Cc1ccc(N(CCCl)CCCl)cc1)C2`, the GI50 was 19.5 µM (inactive) in the assay with Malme-3M; 15.8 µM (inactive) in the assay on SF-268; 17.6 µM in the assay with HCT-15; 19 µM (inactive) in the assay with HOP-92; 13.8 µM (inactive) with LOX IMVI; 22.7 µM (inactive) with KM12. In addition, the GI50 was 17.3 µM (inactive) in the assay with SF-539; 51.1 µM (inactive) with SK-MEL-2; 16.3 µM (inactive) with HCC 2998; 14.1 µM (inactive) with SK-OV-3; 13.7 µM (inactive) in the assay with NCI-H460; 11.7 µM (inactive) in the assay with MCF7. Besides, the GI50 is 16.7 µM (inactive) in the assay with OVCAR-8, 16.5 µM (inactive) with RXF 393, 15.7 µM (inactive) in the assay on A549 and 17.9 µM (inactive) in the assay with OVCAR-3.

Take `CCN(CC)CCSc1nc2cccc([N+](=O)[O-])c2[nH]1`: the GI50 in the assay on HL-60 was > 100 µM (inactive); in the assay on HCT-15, above 100 µM; with HOP-92, 33.4 µM (inactive); in the assay with LOX IMVI, > 100 µM (inactive); in the assay on KM12, > 100 µM (inactive); in the assay with SF-539, > 100 µM (inactive). The GI50 with HCC 2998, in the assay with SK-OV-3, in the assay on OVCAR-8, with RXF 393, with A549 and with M14 was > 100 µM (inactive) throughout. The GI50 in the assay with OVCAR-3 was > 100 µM (inactive).

Turning to `NC(=O)c1ncn(C2OC(CO)C(O)C2O)c1NC(=S)NC(=O)c1ccccc1` (configuration not stated), the GI50 in the assay on Malme-3M, in the assay on HL-60, with SF-268, with HOP-92, with LOX IMVI and in the assay on SR was > 100 µM (inactive) each time. Besides, the GI50 in the assay on KM12, in the assay on SF-539, in the assay on SK-MEL-2, with HCC 2998, with SK-OV-3 and in the assay on NCI-H460 was > 100 µM (inactive) in each case. For the same molecule, the GI50 with OVCAR-8, with RXF 393, with A549, in the assay on M14 and with OVCAR-3 was > 100 µM (inactive) each time.

Consider `Cn1c(=O)nc2n(-c3ccc(F)cc3)c3ccccc3nc-2c1=O`, for which the GI50 was 10.5 µM (inactive) in the assay with Malme-3M; 28.2 µM (inactive) in the assay with SF-268; 16.4 µM in the assay with HCT-15; 24.7 µM (inactive) in the assay on KM12; 21.3 µM (inactive) in the assay with SF-539; 19 µM (inactive) in the assay on SK-MEL-2. Moreover, the GI50 in the assay with HCC 2998 is 19.1 µM (inactive); in the assay with SK-OV-3, > 100 µM (inactive); in the assay on NCI-H460 it was 18.2 µM (inactive); with OVCAR-8, 20.5 µM (inactive); in the assay on RXF 393, 23.8 µM (inactive); in the assay on A549, 18.3 µM (inactive). The GI50 was 13.9 µM (inactive) in the assay on M14 and 3.13 µM (inactive) with OVCAR-3.

In the case of `CCCNC1=Nc2ccccc2N(Cc2ccccc2)CC1`, the GI50 was 10.3 µM (inactive) in the assay with Malme-3M; 12.9 µM (inactive) with HL-60; 15.7 µM (inactive) in the assay with SF-268; 20.7 µM in the assay with HCT-15; 22.5 µM (inactive) with KM12; 17 µM (inactive) with SK-MEL-2. Further, the GI50 is 28.2 µM (inactive) with SK-OV-3; 13.4 µM (inactive) in the assay with NCI-H460; 14.9 µM (inactive) in the assay with OVCAR-8; 11.6 µM (inactive) in the assay with RXF 393; 35.4 µM (inactive) in the assay with A549; 14.3 µM (inactive) in the assay with M14. Besides, the GI50 with OVCAR-3 is 32.4 µM (inactive).

In the case of `Cn1c2c([N+](=O)[O-])[se]nc2c(=O)n1-c1ccc([N+](=O)[O-])cc1`, the GI50 in the assay with Malme-3M is 1.75 µM (inactive); with HL-60 it was 0.615 µM (active); in the assay with SF-268, 2.21 µM (inactive); with HCT-15 it was 1.25 µM; in the assay on HOP-92, 1.63 µM (inactive); in the assay on LOX IMVI it was 2.61 µM (inactive). The GI50 with SR was 0.0474 µM (active); in the assay with KM12, 4.51 µM (inactive); in the assay with SF-539, 1.88 µM (inactive); in the assay on SK-MEL-2, 3.34 µM (inactive); with HCC 2998, 1.74 µM (inactive); in the assay with SK-OV-3 it was 2.72 µM (inactive). The GI50 in the assay on NCI-H460 was 2.31 µM (inactive); in the assay with OVCAR-8 it was 1.02 µM (active); with RXF 393, 0.665 µM (active); with A549 it was 7.24 µM (inactive); in the assay on M14, 1.29 µM (inactive); in the assay on OVCAR-3, 1.73 µM (inactive).

As for `O=C(O)CCC(=O)N1c2ccccc2CC1c1c[nH]c2ccccc12` (configuration not stated), the GI50 in the assay on Malme-3M is > 100 µM (inactive); in the assay with HL-60, > 100 µM (inactive); in the assay with SF-268 it was > 100 µM (inactive); in the assay with HCT-15 it was above 100 µM; in the assay with HOP-92, > 100 µM (inactive); in the assay on LOX IMVI, > 100 µM (inactive). The GI50 is 65.6 µM (inactive) in the assay with KM12; > 100 µM (inactive) in the assay on SF-539; > 100 µM (inactive) with SK-MEL-2; > 100 µM (inactive) with HCC 2998; > 100 µM (inactive) in the assay with SK-OV-3; > 100 µM (inactive) in the assay on NCI-H460. The GI50 in the assay with OVCAR-8, with RXF 393, with A549, in the assay with M14 and in the assay on OVCAR-3 was > 100 µM (inactive) in each case.
